# From US11918620B2, “Traditional Chinese medicine composition, and preparation method therefor and application thereof” (Suzhou Regen-PharmaTech Co., Ltd., priority 2020, dated 2024)
# Tested on: rats with hybrid hyperlipidemia
# Assay: Blood lipids in hybrid hyperlipidemia rat model
# Assay type: in vivo, SD rat
# Details: 3.3 mg/kg, compared with the modeling control group, at each time point
# Experimental: Grouping: After quarantine, the animals were randomized into a negative control group of 10 animals and modeling groups of the rest. After the modeling groups were given modeling feed for 2 weeks, the animals were anesthetized by isoflurane inhalation without fasting. The blood was collected from orbital venous sinus and was centrifuged at 3000 rpm for 10 min to separate the serum. The total cholesterol (TC), triglyceride (TG), low-density lipoprotein cholesterol (LDL-C) and high-density lipoprotein cholesterol (HDL-C) levels were determined. Animals with lower TG levels were eliminated. […]
# 2.8.1 High-fat and high-cholesterol modeling feed: A maintenance feed containing 20.0% of sucrose, 5% of lard, 1.0% of cholesterol, 0.1% of sodium cholate, appropriate amounts of casein, calcium bicarbonate, powdered stone and the like. Other than crude fat, in the modeling feed, moisture, crude protein, crude fat, crude fiber, crude ash, calcium, phosphorus and calcium:phosphorus all satisfied the national standard for maintenance feed. The feed was provided by Guangdong Medical Laboratory Animal Center. […]
# 2.8.6.3 Blood lipids: After 2, 4, 7 and 9 weeks of treatment (d14, d28, d52 and d65), the animals were anesthetized by isoflurane inhalation without fasting. […] The TC, TG, LDL-C and HDL-C levels were determined. […]
compound,measurement,value
"CC(C)c1c(C(=O)Nc2ccccc2)c(-c2ccccc2)c(-c2ccc(F)cc2)n1CC[C@@H](O)C[C@@H](O)CC(=O)O [atorvastatin calcium tablet, atorvastatin calcium]",effect on reducing blood lipids (summary),no significant effect on reducing the blood lipids
